#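 Cells were grown in 96-well plates and exposed to each compound for 48 hours at five concentrations; endpoints were interpolated linearly between bracketing concentrations, or set to the highest concentration if not reached. Definition used: TGI = concentration required for complete inhibition of growth.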
# Key:
# Assay in all cases: NCI anticancer screen, dose series, 48 h
# [1] = system: OVCAR-3 ovarian
# [2] = system: U251 CNS
# [3] = system: TK-10 renal
# [4] = system: OVCAR-8 ovarian
# [5] = system: SK-OV-3 ovarian
# [6] = system: M14 melanoma
# [7] = system: MALME-3M melanoma
# [8] = system: SNB-75 CNS
# [9] = system: ACHN renal
# [10] = system: MOLT-4 leukemia
# [11] = system: OVCAR-5 ovarian
# [12] = system: M19-MEL melanoma
# [13] = system: DMS 114 small cell lung
# [14] = system: NCI-H460 lung
# [15] = system: HOP-62 NSCLC
# [16] = system: UACC-62 melanoma
# [17] = system: SW-620 colon
# [18] = system: RXF-631 renal
# [19] = system: SF-295 CNS
# [20] = system: RPMI-8226 leukemia
# [21] = system: EKVX NSCLC
# [22] = system: LOX IMVI melanoma
# [23] = system: SF-539 CNS
# [24] = system: HL-60(TB) leukemia
# [25] = system: UACC-257 melanoma
# [26] = system: COLO 205 colon
# [27] = system: SK-MEL-2 melanoma
# [28] = system: SK-MEL-5 melanoma
# [29] = system: NCI-H23 lung
# [30] = system: KM12 colon
# [31] = system: NCI-H226 lung
# [32] = system: SNB-19 CNS
# [33] = system: HCC-2998 colon
# [34] = system: CCRF-CEM leukemia
# [35] = system: SK-MEL-28 melanoma
# [36] = system: HOP-18 NSCLC
# [37] = system: SF-268 CNS
# [38] = system: SN12C renal
# [39] = system: UO-31 renal
# [40] = system: IGROV1 ovarian
# [41] = system: KM20L2 colon
# [42] = system: A498 renal
# [43] = system: NCI-H522 lung
# [44] = system: K-562 leukemia
# [45] = system: LXFL 529 NSCLC
# [46] = system: HCT-15 colon
# [47] = system: RXF 393 renal
# [48] = system: 786-0 renal
# [49] = system: A549 NSCLC
# [50] = system: OVCAR-4 ovarian
# [51] = system: HT29 colon
# [52] = system: HCT-116 colon
# [53] = system: SR leukemia
# [54] = system: CAKI-1 renal
# [55] = system: DMS 273 small cell lung
# [56] = system: HOP-92 NSCLC
# [57] = system: DLD-1 colon
# [58] = system: XF 498 CNS
smiles,measurement,setting,value
Cc1c(CCl)c(=O)oc2c(C)c3occ(CCl)c(=O)c3cc12,TGI,[1],> 100 µM
same,TGI,[2],> 100 µM
same,TGI,[3],> 100 µM
same,TGI,[4],> 100 µM
same,TGI,[5],> 100 µM
same,TGI,[6],37.5 µM
same,TGI,[7],> 100 µM
same,TGI,[8],44.8 µM
same,TGI,[9],> 100 µM
same,TGI,[10],22.8 µM
same,TGI,[11],> 100 µM
same,TGI,[12],30.3 µM
same,TGI,[13],41.8 µM
same,TGI,[14],> 100 µM
same,TGI,[15],> 100 µM
same,TGI,[16],30.3 µM
same,TGI,[17],> 100 µM
same,TGI,[18],31.1 µM
same,TGI,[19],> 100 µM
same,TGI,[20],26.8 µM
same,TGI,[21],> 100 µM
same,TGI,[22],30.8 µM
same,TGI,[23],44.9 µM
same,TGI,[24],20.2 µM
same,TGI,[25],> 100 µM
same,TGI,[26],32.9 µM
same,TGI,[27],> 100 µM
same,TGI,[28],> 100 µM
same,TGI,[29],83.7 µM
same,TGI,[30],> 100 µM
same,TGI,[31],48.7 µM
same,TGI,[32],54.7 µM
same,TGI,[33],> 100 µM
same,TGI,[34],14.2 µM
same,TGI,[35],35.4 µM
same,TGI,[36],32 µM
same,TGI,[37],71.7 µM
same,TGI,[38],56.4 µM
same,TGI,[39],31.4 µM
same,TGI,[40],40.9 µM
same,TGI,[41],> 100 µM
same,TGI,[42],> 100 µM
same,TGI,[43],30.5 µM
same,TGI,[44],23.6 µM
same,TGI,[45],30.2 µM
same,TGI,[46],64.6 µM
same,TGI,[47],30.9 µM
same,TGI,[48],> 100 µM
same,TGI,[49],> 100 µM
Clc1ccc2nc(CCSCCc3nc4ccc(Cl)cc4[nH]3)[nH]c2c1,TGI,[50],28.5 µM
same,TGI,[51],24.1 µM
same,TGI,[52],19.3 µM
same,TGI,[2],26.8 µM
same,TGI,[3],22.1 µM
same,TGI,[4],28 µM
same,TGI,[5],34.2 µM
same,TGI,[6],26.5 µM
same,TGI,[53],1.14 µM
same,TGI,[8],34.5 µM
same,TGI,[9],11.4 µM
same,TGI,[10],18.1 µM
same,TGI,[11],25.2 µM
same,TGI,[12],27.4 µM
same,TGI,[14],31.7 µM
same,TGI,[15],34.1 µM
same,TGI,[16],19.2 µM
same,TGI,[17],27 µM
same,TGI,[54],20.2 µM
same,TGI,[18],21.6 µM
same,TGI,[19],20.2 µM
same,TGI,[20],13.5 µM
same,TGI,[21],31.3 µM
same,TGI,[55],29 µM
same,TGI,[56],30.6 µM
same,TGI,[22],40.4 µM
same,TGI,[23],32.7 µM
same,TGI,[57],33.8 µM
same,TGI,[24],8.09 µM
same,TGI,[25],26.3 µM
same,TGI,[26],29 µM
same,TGI,[27],28.8 µM
same,TGI,[28],18.4 µM
same,TGI,[29],31.3 µM
same,TGI,[30],29.7 µM
same,TGI,[31],41.8 µM
same,TGI,[33],31.7 µM
same,TGI,[34],41.6 µM
same,TGI,[36],37 µM
same,TGI,[38],30.3 µM
same,TGI,[39],24.7 µM
same,TGI,[40],25.4 µM
same,TGI,[43],26.5 µM
same,TGI,[44],38.3 µM
same,TGI,[45],19 µM
same,TGI,[46],26.5 µM
same,TGI,[47],38.6 µM
same,TGI,[58],27.5 µM
same,TGI,[48],26.3 µM
same,TGI,[49],24.9 µM
